{
  "source": "paper PMC11859928",
  "about": "“Design, Synthesis, and Antiproliferative Activity of Novel Indole/1,2,4-Triazole Hybrids as Tubulin Polymerization Inhibitors” (Pharmaceuticals, 2025)",
  "key": {"ACHN": {"system": "ACHN", "test": "NCI five-dose assay", "format": "cell-based, human", "settings": "Renal cancer"}, "Breast cancer subpanel": {"system": "Breast cancer subpanel", "test": "NCI five-dose assay, subpanel mean", "format": "cell-based, human"}, "LOX IMVI [1]": {"system": "LOX IMVI", "test": "NCI five-dose assay", "format": "cell-based, human", "settings": "Melanoma"}, "SF-539": {"system": "SF-539", "test": "NCI one-dose assay", "format": "cell-based", "settings": "Homo sapiens, SF-539, CNS cancer, read-out: Cell growth inhibition %"}, "NCI-H226": {"system": "NCI-H226", "test": "NCI one-dose assay", "format": "cell-based", "settings": "Homo sapiens, NCI-H226, Non-small cell lung cancer, read-out: Cell growth inhibition %"}, "PC-3": {"system": "PC-3", "test": "NCI one-dose assay", "format": "cell-based", "settings": "Homo sapiens, PC-3, Prostate cancer, read-out: Cell growth inhibition %"}, "OVCAR-8": {"system": "OVCAR-8", "test": "NCI one-dose assay", "format": "cell-based", "settings": "Homo sapiens, OVCAR-8, Ovarian cancer, read-out: Cell growth inhibition %"}, "SK-MEL-5": {"system": "SK-MEL-5", "test": "NCI one-dose assay", "format": "cell-based", "settings": "Homo sapiens, SK-MEL-5, Melanoma, read-out: Cell growth inhibition %"}, "NCI-H23": {"system": "NCI-H23", "test": "NCI one-dose assay", "format": "cell-based", "settings": "Homo sapiens, NCI-H23, Non-small cell lung cancer, read-out: Cell growth inhibition %"}, "SNB-75": {"system": "SNB-75", "test": "NCI one-dose assay", "format": "cell-based", "settings": "Homo sapiens, SNB-75, CNS cancer, read-out: Cell growth inhibition %"}, "MDA-MB-435": {"system": "MDA-MB-435", "test": "NCI one-dose assay", "format": "cell-based", "settings": "Homo sapiens, MDA-MB-435, Melanoma, read-out: Cell growth inhibition %"}, "NCI/ADR-RES": {"system": "NCI/ADR-RES", "test": "NCI one-dose assay", "format": "cell-based", "settings": "Homo sapiens, Ovarian cancer, read-out: Cell growth inhibition %"}, "IGROV1 [2]": {"system": "IGROV1", "test": "NCI one-dose assay", "format": "cell-based", "settings": "Homo sapiens, IGROV-1, IGROV1, Ovarian cancer, read-out: Cell growth inhibition %"}, "TK-10": {"system": "TK-10", "test": "NCI one-dose assay", "format": "cell-based", "settings": "Homo sapiens, TK-10, Renal cancer, read-out: Cell growth inhibition %"}, "LOX IMVI [3]": {"system": "LOX IMVI", "test": "NCI one-dose assay", "format": "cell-based", "settings": "Homo sapiens, Melanoma, read-out: Cell growth inhibition %"}, "RPMI-8226": {"system": "RPMI-8226", "test": "NCI one-dose assay", "format": "cell-based", "settings": "Homo sapiens, RPMI-8226, Leukemia, read-out: Cell growth inhibition %"}, "U251": {"system": "U251", "test": "NCI one-dose assay", "format": "cell-based", "settings": "Homo sapiens, U-251, U251, CNS cancer, read-out: Cell growth inhibition %"}, "MALME-3M": {"system": "MALME-3M", "test": "NCI one-dose assay", "format": "cell-based", "settings": "Homo sapiens, Melanoma, read-out: Cell growth inhibition %"}, "OVCAR-5": {"system": "OVCAR-5", "test": "NCI one-dose assay", "format": "cell-based", "settings": "Homo sapiens, OVCAR-5, Ovarian cancer, read-out: Cell growth inhibition %"}, "UACC-62": {"system": "UACC-62", "test": "NCI one-dose assay", "format": "cell-based", "settings": "Homo sapiens, UACC-62, Melanoma, read-out: Cell growth inhibition %"}, "NCI-H460": {"system": "NCI-H460", "test": "NCI one-dose assay", "format": "cell-based", "settings": "Homo sapiens, NCI-H460, Non-small cell lung cancer, read-out: Cell growth inhibition %"}, "786-0": {"system": "786-0", "test": "NCI one-dose assay", "format": "cell-based, human", "settings": "Homo sapiens, 786-0, 786-0, Renal cancer, read-out: Cell growth inhibition %"}, "UO-31": {"system": "UO-31", "test": "NCI one-dose assay", "format": "cell-based, human", "settings": "Homo sapiens, UO-31, UO-31, Renal cancer, read-out: Cell growth inhibition %"}, "A498": {"system": "A498", "test": "NCI one-dose assay", "format": "cell-based, human", "settings": "Homo sapiens, A498, A498, Renal cancer, read-out: Cell growth inhibition %"}, "HOP-92": {"system": "HOP-92", "test": "NCI one-dose assay", "format": "cell-based, human", "settings": "Homo sapiens, HOP-92, HOP-92, Non-small cell lung cancer, read-out: Cell growth inhibition %"}, "NCI 60 cell lines": {"system": "NCI 60 cell lines", "test": "NCI one-dose assay, full panel", "format": "cell-based, human", "settings": "Homo sapiens, 60 cell, read-out: cell growth inhibition percentage, range"}, "Ovarian cancer subpanel": {"system": "Ovarian cancer subpanel", "test": "NCI five-dose assay, subpanel mean", "format": "cell-based, human"}, "IGROV1 [4]": {"system": "IGROV1", "test": "NCI five-dose assay", "format": "cell-based, human", "settings": "IGROV1, Ovarian cancer"}, "SK-MEL-2": {"system": "SK-MEL-2", "test": "NCI five-dose assay", "format": "cell-based, human", "settings": "SK-MEL-2, Melanoma"}, "MOLT-4": {"system": "MOLT-4", "test": "NCI five-dose assay", "format": "cell-based, human", "settings": "MOLT-4, Leukemia"}, "[5]": {"settings": "Homo sapiens, read-out: GI50 Conc. per Cell Lines"}, "[6]": {"settings": "Homo sapiens, 48 h, read-out: LC50 (the source's name)"}},
  "note": "Like-named read-outs stand apart in the source and are kept apart here.",
  "data": [
    {"compound": "Cc1ccc(/C(CSc2nnc(-c3c[nH]c4ccccc34)n2-c2ccccc2)=N/O)cc1", "note": "[Compound 7h, (Z)-2-((5-(1H-Indol-3-yl)-4-phenyl-4H-1,2,4-triazol-3-yl)thio)-1-(p-tolyl)ethanone Oxime]", "values": [
      {"measurement": "LC50", "setting": "ACHN; Homo sapiens, 48 h", "value": 6260, "unit": "nM"},
      {"measurement": "GI50", "setting": "ACHN; [5]", "value": 1790, "unit": "nM"},
      {"measurement": "TGI Conc. per Cell Lines", "setting": "ACHN", "value": 3350, "unit": "nM"},
      {"measurement": "GI50 Selectivity Ratio (MID a/MID b)", "setting": "Breast cancer subpanel; Breast cancer subpanel", "value": 1.58},
      {"measurement": "GI50", "setting": "Breast cancer subpanel; Homo sapiens, average sensitivity of all cell lines of the Breast cancer subpanel, read-out: GI50 Subpanel MID b", "value": 1900, "unit": "nM"},
      {"measurement": "CC50", "setting": "LOX IMVI [1]; [6]", "value": 5730, "unit": "nM"},
      {"measurement": "GI50", "setting": "LOX IMVI [1]; [5]", "value": 1750, "unit": "nM"},
      {"measurement": "TGI Conc. per Cell Lines", "setting": "LOX IMVI [1]", "value": 3170, "unit": "nM"},
      {"measurement": "inhibition at 10 µM", "setting": "SF-539", "value": 89.9, "unit": "%"},
      {"measurement": "inhibition at 10 µM", "setting": "NCI-H226", "value": 141, "unit": "%"},
      {"measurement": "inhibition at 10 µM", "setting": "PC-3", "value": 147, "unit": "%"},
      {"measurement": "inhibition at 10 µM", "setting": "OVCAR-8", "value": 128, "unit": "%"},
      {"measurement": "inhibition at 10 µM", "setting": "SK-MEL-5", "value": 65.9, "unit": "%"},
      {"measurement": "inhibition at 10 µM", "setting": "NCI-H23", "value": 46.7, "unit": "%"},
      {"measurement": "inhibition at 10 µM", "setting": "SNB-75", "value": 144, "unit": "%"},
      {"measurement": "inhibition at 10 µM", "setting": "MDA-MB-435", "value": 200, "unit": "%"},
      {"measurement": "inhibition at 10 µM", "setting": "NCI/ADR-RES", "value": 168, "unit": "%"},
      {"measurement": "inhibition at 10 µM", "setting": "IGROV1 [2]", "value": 162, "unit": "%"},
      {"measurement": "inhibition at 10 µM", "setting": "TK-10", "value": 165, "unit": "%"},
      {"measurement": "inhibition at 10 µM", "setting": "LOX IMVI [3]", "value": 188, "unit": "%"},
      {"measurement": "inhibition at 10 µM", "setting": "RPMI-8226", "value": 119, "unit": "%"},
      {"measurement": "inhibition at 10 µM", "setting": "U251", "value": 89.6, "unit": "%"},
      {"measurement": "inhibition at 10 µM", "setting": "MALME-3M", "value": 83.3, "unit": "%"},
      {"measurement": "inhibition at 10 µM", "setting": "OVCAR-5", "value": 149, "unit": "%"},
      {"measurement": "inhibition at 10 µM", "setting": "UACC-62", "value": 153, "unit": "%"},
      {"measurement": "inhibition at 10 µM", "setting": "NCI-H460", "value": 98, "unit": "%"},
      {"measurement": "inhibition at 10 µM", "setting": "786-0", "value": 97.8, "unit": "%"},
      {"measurement": "inhibition at 10 µM", "setting": "UO-31", "value": 93.5, "unit": "%"},
      {"measurement": "inhibition at 10 µM", "setting": "A498", "value": 8.13, "unit": "%"},
      {"measurement": "inhibition at 10 µM", "setting": "HOP-92", "value": 106, "unit": "%"},
      {"measurement": "inhibition at 10 µM", "setting": "NCI 60 cell lines; sixteen cell lines", "value": "72 to 98", "unit": "%"},
      {"measurement": "inhibition at 10 µM", "setting": "NCI 60 cell lines; thirty-six cell lines with complete cell death", "value": "106 to 200", "unit": "%"},
      {"measurement": "GI50", "setting": "Ovarian cancer subpanel; Homo sapiens, average sensitivity of all cell lines of the Ovarian cancer subpanel, read-out: GI50 Subpanel MID b", "value": 2240, "unit": "nM"},
      {"measurement": "GI50 Selectivity Ratio (MID a/MID b)", "setting": "Ovarian cancer subpanel; Ovarian cancer subpanel", "value": 1.34},
      {"measurement": "CC50", "setting": "IGROV1 [4]; Homo sapiens, IGROV-1, 48 h, read-out: LC50 (the source's name)", "value": 9070, "unit": "nM"},
      {"measurement": "GI50", "setting": "IGROV1 [4]; Homo sapiens, IGROV-1, read-out: GI50 Conc. per Cell Lines", "value": 2090, "unit": "nM"},
      {"measurement": "TGI Conc. per Cell Lines", "setting": "IGROV1 [4]", "value": 4350, "unit": "nM"},
      {"measurement": "CC50", "setting": "SK-MEL-2; [6]", "value": "> 100000", "unit": "nM"},
      {"measurement": "GI50", "setting": "SK-MEL-2; [5]", "value": 2880, "unit": "nM"},
      {"measurement": "TGI Conc. per Cell Lines", "setting": "SK-MEL-2", "value": 8960, "unit": "nM"},
      {"measurement": "GI50", "setting": "MOLT-4; [5]", "value": 2040, "unit": "nM"},
      {"measurement": "TGI Conc. per Cell Lines", "setting": "MOLT-4", "value": 4230, "unit": "nM"}
    ]}
  ]
}
